Values of other authors as cited in publication PMC5425492 (Clinical Pharmacokinetics, 2016).

Substance | Within-subject variability in glucose-lowering effect
insulin degludec | 20%
insulin detemir | 27%
